# Reference: ChEMBL document CHEMBL5143523, “Construction and activity evaluation of novel benzodioxane derivatives as dual-target antifungal inhibitors” (Eur J Med Chem, 2022)
# Experiments:
# Format in all cases: functional
# [1] = tested on: Candida albicans; experiment: Antifungal activity against Candida albicans assessed as fungal growth inhibition measured after 72 hrs by CLSI protocol based liquid medium dilution method
# [2] = tested on: Candida tropicalis; experiment: Antifungal activity against Candida tropicalis ATCC 1369 assessed as fungal growth inhibition measured after 72 hrs by CLSI protocol based liquid medium dilution method
# [3] = tested on: Aspergillus fumigatus; experiment: Antifungal activity against Aspergillus fumigatus KM8001 assessed as fungal growth inhibition measured after 72 hrs by CLSI protocol based liquid medium dilution method
# [4] = tested on: Nakaseomyces glabratus; experiment: Antifungal activity against Candida glabrata ATCC 0001 assessed as fungal growth inhibition measured after 72 hrs by CLSI protocol based liquid medium dilution method
# [5] = tested on: Candida albicans; experiment: Antifungal activity against Candida albicans ATCC 10231 assessed as fungal growth inhibition measured after 72 hrs by CLSI protocol based liquid medium dilution method
# [6] = tested on: Pichia kudriavzevii; experiment: Antifungal activity against Candida krusei ATCC 6258 assessed as fungal growth inhibition measured after 72 hrs by CLSI protocol based liquid medium dilution method
# [7] = tested on: Candida albicans; experiment: Antifungal activity against fluconazole resistant Candida albicans strain 901 assessed as fungal growth inhibition measured after 72 hrs by CLSI protocol based liquid medium dilution method
# [8] = tested on: Candida albicans; experiment: Antifungal activity against fluconazole resistant Candida albicans strain 103 assessed as fungal growth inhibition measured after 72 hrs by CLSI protocol based liquid medium dilution method
# [9] = tested on: Candida albicans; experiment: Antifungal activity against fluconazole resistant Candida albicans strain 904 assessed as fungal growth inhibition measured after 72 hrs by CLSI protocol based liquid medium dilution method
# [10] = tested on: Candida albicans; experiment: Antifungal activity against fluconazole resistant Candida albicans strain 17# assessed as fungal growth inhibition measured after 72 hrs by CLSI protocol based liquid medium dilution method
# [11] = tested on: Candida albicans; experiment: Antifungal activity against fluconazole resistant Candida albicans strain CaR assessed as fungal growth inhibition measured after 72 hrs by CLSI protocol based liquid medium dilution method
SMILES,MIC50 [1] [µg/mL],MIC50 [2] [µg/mL],MIC50 [3] [µg/mL],MIC50 [4] [µg/mL],MIC50 [5] [µg/mL],MIC50 [6] [µg/mL],MIC50 [7] [µg/mL],MIC50 [8] [µg/mL],MIC50 [9] [µg/mL],MIC50 [10] [µg/mL],MIC50 [11] [µg/mL]
CCOC(=O)[C@@H](NC(=O)c1cccc2c1OCCO2)C(C)C,16,,,,,,,,,,
O=C(N[C@@H](Cn1ccnc1)c1ccccc1)c1ccc2c(c1)OCCO2,,0.25,> 8,0.25,0.25,0.5,,,,,
CCC(C)[C@H](NC(=O)c1ccc2c(c1)OCCO2)C(=O)Nc1cccnc1 (some centres undefined),,2,4,1,0.5,1,,,,,
CC(C)[C@H](NC(=O)c1ccc2c(c1)OCCO2)C(=O)N[C@@H](Cn1ccnc1)c1ccccc1,,0.125,4,0.25,0.25,0.5,,,,,
CC(C)[C@H](NC(=O)c1cccc2c1OCCO2)C(=O)Nc1cccnc1,,1,> 8,1,0.5,0.5,,,,,
CCC(C)[C@H](NC(=O)c1ccc2c(c1)OCCO2)C(=O)N[C@@H](Cn1ccnc1)c1ccccc1 (some centres undefined),,0.5,2,0.125,0.125,0.25,2,1,4,2,2
O=C(NCCc1ccccc1)c1cccc2c1OCCO2,8,,,,,,,,,,
O=C(N[C@@H](Cn1ccnc1)c1ccccc1)c1cccc2c1OCCO2,,0.5,> 8,0.5,0.5,1,,,,,
CCC(C)[C@H](NC(=O)c1ccc2c(c1)OCCO2)C(=O)N[C@@H](Cn1cncn1)c1ccccc1 (some centres undefined),,0.25,4,0.5,0.25,0.25,,,,,

# Further compounds by falling MIC50 [2], results first:
MIC50 [1] [µg/mL],MIC50 [2] [µg/mL],MIC50 [3] [µg/mL],MIC50 [4] [µg/mL],MIC50 [5] [µg/mL],MIC50 [6] [µg/mL],SMILES,MIC50 [7] [µg/mL],MIC50 [8] [µg/mL],MIC50 [9] [µg/mL],MIC50 [10] [µg/mL],MIC50 [11] [µg/mL]
,0.5,4,2,1,0.5,CCC(C)[C@H](NC(=O)c1cccc2c1OCCO2)C(=O)Nc1ccncc1 (some centres undefined),,,,,
0.25,0.5,> 8,0.5,0.25,0.25,CC(C)[C@H](NC(=O)c1cccc2c1OCCO2)C(=O)N[C@@H](Cn1ccnc1)c1ccccc1,,,,,
0.5,0.25,> 8,0.25,0.5,0.5,O=C(N[C@H](Cc1ccccc1)Cn1ccnc1)c1cccc2c1OCCO2,,,,,
,0.25,> 8,0.5,0.25,0.25,CC(C)[C@H](NC(=O)c1ccc2c(c1)OCCO2)C(=O)N[C@@H](Cn1cncn1)c1ccccc1,,,,,
